IC50 data for 28 compounds are collected here from patent US20220242850A1, “PHTHALAZIN-1-ONE DERIVATIVES USEFUL AS GRK2 INHIBITORS” (Janssen Pharmaceutica NV, priority 2019, published 2022).

Molecules are shown by their SMILES. Values joined by “and” are separate entries in the source; they are usually repeats but may differ in a detail not shown here. Equal values may be shown once.

In test [1] the target is T1, GRK2 (Homo sapiens, UniProt P25098).
T1 sequence (P25098 1-689): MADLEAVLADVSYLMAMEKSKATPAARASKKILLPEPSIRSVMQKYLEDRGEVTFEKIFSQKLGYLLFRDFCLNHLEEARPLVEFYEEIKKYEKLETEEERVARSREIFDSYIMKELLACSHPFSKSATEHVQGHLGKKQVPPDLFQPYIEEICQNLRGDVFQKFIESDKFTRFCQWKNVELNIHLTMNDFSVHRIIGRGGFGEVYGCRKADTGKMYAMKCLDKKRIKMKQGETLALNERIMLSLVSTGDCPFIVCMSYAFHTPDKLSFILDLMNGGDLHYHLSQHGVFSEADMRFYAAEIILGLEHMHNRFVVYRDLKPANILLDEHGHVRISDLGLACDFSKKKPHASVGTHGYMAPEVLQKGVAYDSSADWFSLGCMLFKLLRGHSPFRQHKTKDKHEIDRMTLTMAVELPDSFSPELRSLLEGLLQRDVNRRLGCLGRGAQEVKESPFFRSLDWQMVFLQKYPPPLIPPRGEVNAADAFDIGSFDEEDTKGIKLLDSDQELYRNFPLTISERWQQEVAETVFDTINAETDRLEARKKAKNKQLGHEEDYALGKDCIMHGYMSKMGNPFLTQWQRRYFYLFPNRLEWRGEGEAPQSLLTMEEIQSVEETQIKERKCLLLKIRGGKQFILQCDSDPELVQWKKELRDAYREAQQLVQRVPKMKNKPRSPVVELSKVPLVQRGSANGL
Briefly: GRK2 Transcreener Assay. The test is classed as biochemical. The following applies: 10 nM GRK2, 10 uM ATP, 150 uM peptide substrate. The protocol:
Positive and negative control wells received an equal volume of DMSO. The final DMSO concentration in the assay is 1%.
The plate was placed in centrifuge equipped with a spin-bucket rotor and spun for 1 min at 1000 rpm.
GRK2 enzymatic reactions were initiated with the addition of 2 μL/well of 50 nM GRK2 in assay buffer. Plates were centrifuged for 1 min at 1000 rpm. For negative control wells, the order of reagent addition was reversed: 10 μL/well ADP detection mix (see below) was added first, followed by the addition of 2 μL/well of the GRK2 solution. Reaction mixtures were incubated at ambient temperature for 2 hours.
Following incubation, the reactions were quenched with 10 μL/well of the Transcreener ADP detection mix. […] The plates were then centrifuged for 1 min at 1000 rpm.
Fluorescence polarization values of the reaction mixtures were read on a Safire II plate reader after a 60 min incubation at ambient temperature. Excitation wavelength=590 nm: emission wavelength=650 nm.
The fluorescence polarization data were converted to % activity as follows:
% activity=(sample−NC)/(PC−NC)*100
where NC is the mean of negative control (ADP detection mix added prior to GRK2 addition), and PC is the mean of positive control (GRK2 reaction without inhibitor). IC50 values are determined from a 4-parameter fit, using the following equation:
(§1) Y=Bottom+(Top−Bottom)/(1+10^(Log IC50-X)*Hill slope)),
(§2) where X=log10 of the compound concentration.

Test [2] has as its target T1, GRK2. The test is described as follows: hGRK2 LANCE Ultra In Vitro Assay. The following applies: hGRK2 LANCE Ultra Assay IC50, 10 nM GRK2; ATP 30 or 600 μM (not stated which). It counts as biochemical. Here is the method: G-protein coupled receptor kinases (GR Kinases) desensitize activated G-protein coupled receptors (GPCRs), by phosphorylation of cytoplasmic loops or carboxyl-terminal tails of GPCRs. GRK2 is one of the 6 different GR kinases and is implicated in heart failure and diabetes.
This assay is sensitive and requires as low as 10 nM enzyme, in a total volume of 10 μL. In addition, the ATP concentration can be varied over a broad range, without interfering with the assay or changing the assay condition. […] Testing inhibitors routinely at both high and low ATP concentrations also enables identification of potential non-ATP competitive inhibitors.
Paroxetine was used as the reference compound in this assay.
Test compounds were dissolved in DMSO at 1 mM and were 3-fold serial diluted. The compound DMSO solutions were then added (100 nL) into a plate well using an acoustic dispenser. To each well was then added 20 nM GRK2 (5 μL) in assay buffer (20 mM HEPES, pH 7.5, 10 mM MgCl2, 0.001% Tween-20®). The plate was sealed and centrifuged at 1000 rpm for 1 min. The plate and wells containing a mixture of GRK2 and test compound were incubated at ambient temperature for 30 min (prior to initializing the enzymatic reaction).
Enzyme reactions were initiated by the addition of 4.9 μL Substrates/Eu-Ab mix to each well. […] Final concentrations of reagents in the assays were as follows: 20 mM HEPES, pH 7.5; 10 mM MgCl2; 0.001% Tween-2® (w/v), 30 or 600 μM ATP; 200 nM ULight-peptide; 4 nM Eu-Ab; 10 nM GRK2; and 1% DMSO.
The plates were sealed and centrifuged at 1000 rpm for 1 min. For reactions at low ATP concentration (30 μM), reaction mixtures were incubated at ambient temperature for 120 min. For reactions at high ATP concentration (600 μM), reaction mixtures were incubated at ambient temperature for 60 min.
The enzyme reactions were quenched by addition of 10 μL of 12 mM EDTA in 1× LANCE detection solution to each well. The plates were then incubated at ambient temperature for 30 min.
The raw HTRF data were converted to % active as follows:
% active=(sample−NC)/(PC−NC)*100
where NC is the mean of negative control (reactions without GRK2), and PC is the mean of positive control (reactions with GRK2 but without inhibitor). IC50 values were determined from a 4-parameter fit, using the following equation:
as §1, §2

`C[C@H](c1cccc(OCC(=O)O)c1)n1ncc2ccc(-c3ccnc(N)n3)cc2c1=O` (single isomer, unassigned) [Compound 22] yielded a 50% inhibitory concentration (IC50) at GRK2 [1] of 11000 nM.

In turn, `O=C(COc1cccc(Cn2ncc3ccc(-c4cn[nH]c4)cc3c2=O)c1)N1CCOCC1` [Compound 6, 2-[[3-(2-Morpholino-2-oxo-ethoxy)phenyl]methyl]-7-(1H-pyrazol-4-yl)phthalazin-1-one] yielded an IC50 against GRK2 [2] of 8 nM.

Compound `COc1cccc(Cl)c1CNC(=O)c1cccc(Cn2ncc3ccc(-c4cn[nH]c4)cc3c2=O)c1` [Compound 1, N-[(2-Chloro-6-methoxy-phenyl)methyl]-3-[[1-oxo-7-(1H-pyrazol-4-yl)phthalazin-2-yl]methyl]benzamide] registered an IC50 against GRK2 [2] below 5 nM.

`COC(=O)COc1cccc([C@@H](C)n2ncc3ccc(-c4ccnc(N)n4)cc3c2=O)c1` (single isomer, unassigned) [Compound 27] yielded a 50% inhibitory concentration (IC50) at GRK2 [1] of 1900 nM.

At GRK2 [1], `COc1cccc(Cn2ncc3ccc(-c4ccoc4)cc3c2=O)c1` [Compound 36, 7-(3-Furyl)-2-[(3-methoxyphenyl)methyl]phthalazin-1-one] had a half-maximal inhibitory concentration (IC50) of 900 nM.

At GRK2 [1], `COC(=O)CCNC(=O)c1cccc(Cn2ncc3ccc(-c4cn[nH]c4)cc3c2=O)c1` [Compound 24, Methyl 3-[[3-[[1-oxo-7-(1H-pyrazol-4-yl)phthalazin-2-yl]methyl]benzoyl]amino]propanoate] gave an IC50 of 7.4 nM.

`O=C(NC1CC2CCC1C2)c1cccc(Cn2ncc3ccc(-c4cn[nH]c4)cc3c2=O)c1` (stereo not shown) [Compound 3, N-Norbornan-2-yl-3-[[1-oxo-7-(1H-pyrazol-4-yl)phthalazin-2-yl]methyl]benzamide] displayed a half-inhibitory concentration (IC50) at GRK2 [2] of 5 nM.

On GRK2 [1], `Cc1n[nH]cc1-c1ccc2cnn([C@H](C)c3cccc(OCC(=O)O)c3)c(=O)c2c1` (single isomer, unassigned) [Compound 28] returned a half-inhibitory concentration (IC50) of 410 nM.

As to `C[C@H](c1cccc(OCC(=O)O)c1)n1ncc2ccc(-c3cn[nH]c3)cc2c1=O` (single isomer, unassigned) [Compound 29], it took 47 nM to reach half-maximal inhibition on GRK2 [1] (IC50).

`COc1cccc(Cn2ncc3ccc(-c4ccnc(N)n4)cc3c2=O)c1` [Compound 34, 7-(2-Aminopyrimidin-4-yl)-2-[(3-methoxyphenyl)methyl]phthalazin-1-one] displayed a concentration for half-maximal inhibition (IC50) on GRK2 [1] of 890 nM.

With `CN(C)C(=O)COc1cccc(Cn2ncc3ccc(-c4cn[nH]c4)cc3c2=O)c1` [Compound 12, N,N-Dimethyl-2-[3-[[1-oxo-7-(1H-pyrazol-4-yl)phthalazin-2-yl]methyl]phenoxy]acetamide], half-maximal inhibition on GRK2 [2] (IC50) required 13 nM.

Consider `COc1cccc(Cn2ncc3ccc(-c4cn[nH]c4)c(C#N)c3c2=O)c1` [Compound 10, 3-[(3-Methoxyphenyl)methyl]-4-oxo-6-(1H-pyrazol-4-yl)phthalazine-5-carbonitrile], for which the IC50 on GRK2 [2] is 11 nM.

For `COc1cccc(Cn2ncc3ccc(-c4c[nH]nc4C)cc3c2=O)c1` [Compound 35, 2-[(3-Methoxyphenyl)methyl]-7-(3-methyl-1H-pyrazol-4-yl)phthalazin-1-one], the IC50 on GRK2 [1] is 140 nM and 120 nM.

In turn, `C#CCNC(=O)c1cccc(Cn2ncc3ccc(-c4cn[nH]c4)cc3c2=O)c1` [Compound 8, 3-[[1-Oxo-7-(1H-pyrazol-4-yl)phthalazin-2-yl]methyl]-N-prop-2-ynyl-benzamide] registered a half-maximal inhibitory concentration (IC50) on GRK2 [2] of 10 nM.

In turn, `C[C@H](c1cccc(OCCOC2CC2)c1)n1ncc2ccc(-c3cn[nH]c3)cc2c1=O` (single isomer, unassigned) [Compound 30] gave a half-maximal inhibitory concentration (IC50) against GRK2 [1] of 660 nM.

`COc1cccc(Cn2ncc3ccc(-c4cn[nH]c4)c(F)c3c2=O)c1` [Compound 9, 8-Fluoro-2-[(3-methoxyphenyl)methyl]-7-(1H-pyrazol-4-yl)phthalazin-1-one] showed a concentration for half-maximal inhibition (IC50) on GRK2 [2] of 11 nM.

At GRK2 [1], `O=C(O)COc1cccc(Cn2ncc3ccc(-c4cn[nH]c4)cc3c2=O)c1` [Compound 38, 2-[3-[[1-Oxo-7-(1H-pyrazol-4-yl)phthalazin-2-yl]methyl]phenoxy]acetic acid] returned an IC50 of 8 nM.

Compound `COc1cccc([C@@H](C)n2ncc3ccc(-c4ccnc(N)n4)cc3c2=O)c1` (single isomer, unassigned) [Compound 33] yielded a half-inhibitory concentration (IC50) against GRK2 [1] of 7700 nM.

On GRK2 [1], `O=c1c2cc(-c3cn[nH]c3)ccc2cnn1Cc1ccccc1` [Compound 40, 2-Benzyl-7-(1H-pyrazol-4-yl)phthalazin-1-one] showed an IC50 of 300 nM.

Compound `[2H]C([2H])(Oc1cccc([C@@H](C)n2ncc3ccc(-c4cn[nH]c4)cc3c2=O)c1)C(=O)O` (single isomer, unassigned) [Compound 20] had an IC50 at GRK2 [1] of 190 nM.

For the compound `[2H]C([2H])(Oc1cccc([C@@H](C)n2ncc3ccc(-c4cn[nH]c4)cc3c2=O)c1)C(=O)OC` (single isomer, unassigned) [Compound 21], inhibition on GRK2 [1] was half-maximal at 23 nM (IC50).

Consider `CCC(c1cccc(OC)c1)n1ncc2ccc(-c3cn[nH]c3)cc2c1=O` (stereo not shown) [Compound 32, 2-[1-(3-Methoxyphenyl)propyl]-7-(1H-pyrazol-4-yl)phthalazin-1-one], for which the IC50 at GRK2 [1] was found to be 1600 nM.

As for `O=C(O)CCNC(=O)c1cccc(Cn2ncc3ccc(-c4cn[nH]c4)cc3c2=O)c1` [Compound 26, 3-[[3-[[1-Oxo-7-(1H-pyrazol-4-yl)phthalazin-2-yl]methyl]benzoyl]amino]propanoic acid], at GRK2 [1], the IC50 came to 520 nM.

In the case of `O=C(O)Cc1cccc(Cn2ncc3ccc(-c4cn[nH]c4)cc3c2=O)c1` [Compound 23, 2-[3-[[1-oxo-7-(1H-pyrazol-4-yl)phthalazin-2-yl]methyl]phenyl]acetic acid], the 50% inhibitory concentration (IC50) at GRK2 [1] stood at 1300 nM.

Regarding `COC(=O)COc1cccc(Cn2ncc3ccc(-c4cn[nH]c4)cc3c2=O)c1` [Compound 37, Methyl 2-[3-[[1-oxo-7-(1H-pyrazol-4-yl)phthalazin-2-yl]methyl]phenoxy]acetate], the half-inhibitory concentration (IC50) on GRK2 [1] was below 5 nM.

Take `Cc1n[nH]cc1-c1ccc2cnn([C@H](C)c3cccc(OCCOC4CC4)c3)c(=O)c2c1` (single isomer, unassigned) [Compound 31]: inhibition at GRK2 [1] was half-maximal at 6200 nM (IC50).

In turn, `COC(=O)Cc1cccc(Cn2ncc3ccc(-c4cn[nH]c4)cc3c2=O)c1` [Compound 25, Methyl 2-[3-[[1-oxo-7-(1H-pyrazol-4-yl)phthalazin-2-yl]methyl]phenyl]acetate] had an IC50 on GRK2 [1] of 220 nM.

`O=c1c2cc(-c3cn[nH]c3)ccc2cnn1Cc1cccc(OC(F)(F)F)c1` [Compound 39, 7-(1H-Pyrazol-4-yl)-2-[[3-(trifluoromethoxy)phenyl]methyl]phthalazin-1-one] yielded an IC50 against GRK2 [1] above 50000 nM.

The IC50 is the concentration that inhibits the measured activity by half. A low value points to higher potency.
